In patent US20130051651A1, “QUANTITATIVE IMAGE ANALYSIS FOR WOUND HEALING ASSAY” (PURDUE RESEARCH FOUNDATION, priority 2010, published 2013):

System: MCF7 cells
Assay: wound healing assay analysed with the quantitative image analysis algorithm
Type: cell-based
Excerpt: The wound healing assay, or “scratch” assay, is a traditional method used to study cell proliferation and migration. […] The cultures are then imaged over time using bright field or fluorescence microscopy to monitor the growth and migration of cells into the wound as it is healing.
Illustrative embodiments of the quantitative image analysis algorithm 100 have been tested multiple times and have provided robust and dependable wound healing assay analysis. By way of example, the […] 102 of several wound healing assays were measured at 24 hour time points (up to 96 hours). […] In this experiment, the algorithm took 90 minutes to process five time points for each wound healing assay in a 96 well plate (i.e., a total of 480 bright point images 102 being analyzed). […]
Furthermore, the data produced by the quantitative image analysis algorithm 100 matches traditional wound healing assay data. […]

neuregulin 2β
percentage of wound healing using the wound area calculated by the algorithm (MCF7 cells treated with varying doses, different time points, dose response 48 hours after wound creation (FIGS. 3A, 3B)): dose-dependent increase in healing | healing curve (speed of wound healing) (MCF7 cells, 4 different doses, treated versus untreated cells over time (FIG. 3A)): treated cells healed faster
